Experimental data published in ChEMBL document CHEMBL2203133 (J Med Chem, 2012).
Activity calls are given as the source filed them. The calls are words filed in the database; no cut-off is given here.

Tests used:
[1] = target: Voltage-gated inwardly rectifying potassium channel KCNH2 (Homo sapiens, UniProt Q12809)
[2] = target: T1, Serine/threonine-protein kinase Chk1 (Homo sapiens, UniProt O14757)
T1 sequence (O14757 whole entry): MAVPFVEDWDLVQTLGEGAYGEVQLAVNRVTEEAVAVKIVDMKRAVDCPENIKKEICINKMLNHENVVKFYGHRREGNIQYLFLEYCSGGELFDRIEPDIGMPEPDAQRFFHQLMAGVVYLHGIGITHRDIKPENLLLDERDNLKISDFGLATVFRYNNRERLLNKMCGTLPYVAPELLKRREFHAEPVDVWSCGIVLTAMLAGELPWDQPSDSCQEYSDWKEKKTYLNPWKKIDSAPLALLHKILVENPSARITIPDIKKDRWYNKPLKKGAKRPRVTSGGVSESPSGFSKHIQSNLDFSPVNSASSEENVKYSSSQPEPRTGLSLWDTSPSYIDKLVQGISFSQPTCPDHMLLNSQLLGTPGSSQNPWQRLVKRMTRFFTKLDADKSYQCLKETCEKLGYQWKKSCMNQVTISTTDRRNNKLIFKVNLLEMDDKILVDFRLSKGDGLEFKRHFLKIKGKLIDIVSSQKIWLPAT

[3] = tested on: HT-29; experiment: Antitumor activity against human HT-29 cells xenografted in athymic mouse assessed as tumor growth delay at 12.5 mg/kg, ip tid for 7 days (reference value: 6.9 1.5); format: functional; conditions: route intraperitoneal
[4] = tested on: Mus musculus; experiment: Toxicity in athymic mouse xenografted with human HT-29 cells assessed as body weight loss at 12.5 mg/kg, ip tid for 7 days; format: organism-based; parameters: dose 12.5 mg/kg, route intraperitoneal; conditions: in vivo, 168 h
[5] = in vitro; conditions: mouse, liver microsomes
[6] = tested on: Mus musculus; experiment: Toxicity in athymic mouse xenografted with human Calu6 cells assessed as body weight loss at 100 mg/kg, iv tid for 7 days; format: organism-based, Calu-6; parameters: dose 100 mg/kg, route intravenous; conditions: in vivo, 168 h
[7] = tested on: SW-620; experiment: Antitumor activity against human SW620 cells xenografted in athymic mouse assessed as tumor growth delay at 100 mg/kg, iv tid for 4 days (reference value: 5.3 1.3); format: functional
[8] = tested on: HT-29; experiment: Antitumor activity against human HT-29 cells xenografted in athymic mouse assessed as tumor growth delay at 100 mg/kg, iv tid for 7 days (reference value: 8.8 4.8); format: functional
[9] = tested on: Mus musculus; experiment: Toxicity in athymic mouse xenografted with human HT-29 cells assessed as body weight loss at 100 mg/kg, iv tid for 7 days; format: organism-based; parameters: dose 100 mg/kg, route intravenous; conditions: in vivo, 168 h
[10] = tested on: Calu-6; experiment: Antitumor activity against human Calu6 cells xenografted in athymic mouse assessed as tumor growth delay at 100 mg/kg, iv tid for 7 days (reference value: 6.9 1.6); format: functional
[11] = tested on: Mus musculus; experiment: Toxicity in athymic mouse xenografted with human SW620 cells assessed as body weight loss at 100 mg/kg, iv tid for 4 days; format: organism-based, SW-620; parameters: dose 100 mg/kg, route intravenous; conditions: in vivo, 96 h
[12] = Plasma concentration in BALB/c mouse at 10 mg/kg, po at 6 hrs; format: ADME, organism-based; parameters: dose 10 mg/kg, route oral
[13] = Plasma concentration in BALB/c mouse at 10 mg/kg, po at 1 hr; format: ADME, organism-based; parameters: dose 10 mg/kg, route oral
[14] = Plasma concentration in BALB/c mouse at 10 mg/kg, iv at 1 hr administered as bolus dose; format: ADME, organism-based; parameters: dose 10 mg/kg, route intravenous
[15] = Plasma concentration in BALB/c mouse at 10 mg/kg, iv at 6 hrs administered as bolus dose; format: ADME, organism-based; parameters: dose 10 mg/kg, route intravenous
[16] = tested on: Caco-2; conditions: human
Description: Permeability across apical to basolateral side in human Caco2 cells

[17] = target: hERG (KCNH2) (Homo sapiens, UniProt Q12809); experiment: Inhibition of human ERG overexpressed in HEK cells at 10 uM; format: cell-based, HEK293; conditions: HEK cells overexpressing human ERG
Chain of hERG (KCNH2) (Q12809 whole entry): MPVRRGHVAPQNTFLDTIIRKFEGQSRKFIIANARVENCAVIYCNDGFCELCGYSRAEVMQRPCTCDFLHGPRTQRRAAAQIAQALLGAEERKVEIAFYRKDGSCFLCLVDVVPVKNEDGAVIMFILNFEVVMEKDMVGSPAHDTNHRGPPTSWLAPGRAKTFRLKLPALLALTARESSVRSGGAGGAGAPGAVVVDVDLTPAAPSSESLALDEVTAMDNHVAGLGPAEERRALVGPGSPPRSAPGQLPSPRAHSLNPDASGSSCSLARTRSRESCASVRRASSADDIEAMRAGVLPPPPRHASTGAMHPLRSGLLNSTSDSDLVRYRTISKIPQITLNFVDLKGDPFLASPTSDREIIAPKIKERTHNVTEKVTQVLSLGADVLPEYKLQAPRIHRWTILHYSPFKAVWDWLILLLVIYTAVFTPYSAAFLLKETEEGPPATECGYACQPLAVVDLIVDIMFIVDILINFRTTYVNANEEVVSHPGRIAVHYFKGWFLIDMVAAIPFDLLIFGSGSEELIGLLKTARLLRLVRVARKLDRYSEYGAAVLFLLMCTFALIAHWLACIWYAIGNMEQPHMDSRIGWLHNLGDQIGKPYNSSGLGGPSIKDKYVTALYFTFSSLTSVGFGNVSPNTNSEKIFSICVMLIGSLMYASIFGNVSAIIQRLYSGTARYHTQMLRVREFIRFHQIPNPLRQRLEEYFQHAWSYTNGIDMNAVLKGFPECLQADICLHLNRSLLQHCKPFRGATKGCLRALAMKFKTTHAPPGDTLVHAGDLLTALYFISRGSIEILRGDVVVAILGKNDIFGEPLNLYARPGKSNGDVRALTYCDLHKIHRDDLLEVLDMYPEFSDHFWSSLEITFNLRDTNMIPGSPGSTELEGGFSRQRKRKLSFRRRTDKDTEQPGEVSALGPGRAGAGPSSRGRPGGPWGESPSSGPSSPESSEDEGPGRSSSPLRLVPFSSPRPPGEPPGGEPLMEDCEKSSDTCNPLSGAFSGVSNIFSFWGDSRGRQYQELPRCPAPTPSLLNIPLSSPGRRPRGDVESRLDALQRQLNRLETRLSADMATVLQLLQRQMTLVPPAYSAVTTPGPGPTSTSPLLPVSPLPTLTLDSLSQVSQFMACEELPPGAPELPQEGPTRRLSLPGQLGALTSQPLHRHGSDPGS

[18] = Thermodynamic solubility of the compound in water; format: physicochemical
[19] = target: Serine/threonine-protein kinase Chk2 (Homo sapiens, UniProt O96017)
Chain of Serine/threonine-protein kinase Chk2 (O96017 whole entry): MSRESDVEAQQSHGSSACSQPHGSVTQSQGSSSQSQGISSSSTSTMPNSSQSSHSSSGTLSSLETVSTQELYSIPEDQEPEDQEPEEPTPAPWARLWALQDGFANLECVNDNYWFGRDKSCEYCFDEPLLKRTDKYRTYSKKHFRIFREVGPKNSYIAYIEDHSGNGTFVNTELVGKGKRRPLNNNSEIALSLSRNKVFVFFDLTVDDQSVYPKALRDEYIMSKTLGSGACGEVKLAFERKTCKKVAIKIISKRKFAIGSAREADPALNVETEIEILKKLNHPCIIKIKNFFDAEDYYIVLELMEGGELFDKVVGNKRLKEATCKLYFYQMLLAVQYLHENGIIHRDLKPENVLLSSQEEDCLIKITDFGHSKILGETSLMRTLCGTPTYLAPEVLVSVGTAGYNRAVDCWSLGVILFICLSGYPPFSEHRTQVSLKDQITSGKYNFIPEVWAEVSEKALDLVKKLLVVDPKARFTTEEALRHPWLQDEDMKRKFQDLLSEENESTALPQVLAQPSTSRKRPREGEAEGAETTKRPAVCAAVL

[20] = Toxicity in po dosed mouse; format: organism-based; conditions: in vivo
[21] = tested on: Plasma; experiment: Plasma protein binding in human; format: ADME, cell-free
[22] = target: Cyclin-dependent kinase 1 (Homo sapiens, UniProt P06493)
Chain of Cyclin-dependent kinase 1 (P06493 whole entry): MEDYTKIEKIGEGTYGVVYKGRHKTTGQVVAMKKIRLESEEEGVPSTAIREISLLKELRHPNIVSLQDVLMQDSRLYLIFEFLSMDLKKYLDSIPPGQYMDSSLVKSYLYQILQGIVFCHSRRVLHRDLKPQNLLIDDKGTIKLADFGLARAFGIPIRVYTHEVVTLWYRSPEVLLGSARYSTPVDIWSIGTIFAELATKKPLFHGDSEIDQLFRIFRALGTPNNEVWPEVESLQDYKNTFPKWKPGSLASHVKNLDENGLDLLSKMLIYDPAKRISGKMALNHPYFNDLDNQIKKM

[23] = Drug uptake in human SW620 cells xenografted in athymic nude mouse at 160 mg/kg, po measured at 6 to 12 hrs in presence of gemcitabine; format: ADME, organism-based, SW-620; parameters: dose 160 mg/kg, route oral; conditions: in vivo
[24] = species: Mus musculus; conditions: SW-620, 160 mg/kg
[25] = tested on: Mus musculus; experiment: Oral bioavailability in BALB/c mouse at 10 mg/kg; format: ADME, organism-based; conditions: in vivo
[26] = tested on: Mus musculus; experiment: Clearance in BALB/c mouse at 10 mg/kg, iv and po; format: ADME, organism-based; parameters: dose 10 mg/kg, route oral; conditions: in vivo
[27] = species: Mus musculus; conditions: SW-620, 160 mg/kg; remark: listed apart in the source
[28] = Aqueous solubility in phosphate buffer at pH 6.5; format: physicochemical
[29] = tested on: Mus musculus; experiment: Volume of distribution at steady state in BALB/c mouse at 10 mg/kg, iv and po; format: ADME, organism-based; parameters: dose 10 mg/kg, route oral; conditions: in vivo

Chain of Voltage-gated inwardly rectifying potassium channel KCNH2 (Q12809 whole entry): as the sequence (Q12809 whole entry) above

Row | SMILES | IC50 [2] [µM] | metabolised at 0.5 h [5] [%] | concentration at 6 h [12] [nM] | concentration at 1 h [13] [nM] | concentration at 1 h [14] [nM] | concentration at 6 h [15] [nM] | IC50 [1] [µM] | other results
1 | COc1cc(Nc2cnc(C#N)c(O[C@@H]3CCNC3)n2)ncc1-c1cnn(C)c1 | < 0.001 | – | – | – | – | – | – | –
2 | CCc1c2c(nc3ccc(OC(=O)N4CCC(N5CCCCC5)CC4)cc13)-c1cc3c(c(=O)n1C2)COC(=O)[C@]3(O)CC [IRINOTECAN] | – | – | – | – | – | – | – | Time [3]: 6.4 days; Activity [4]: Non-toxic
3 | Nc1ccn([C@@H]2O[C@H](CO)[C@@H](O)C2(F)F)c(=O)n1 [GEMCITABINE] | – | – | – | – | – | – | – | Activity [6]: Non-toxic; Time [7]: 1.6 days; Time [8]: 2.3 days; Activity [9]: Non-toxic; Time [10]: 7.2 days; Activity [11]: Non-toxic
4 | COC(=O)c1cnc(Nc2cnc(C#N)c(O[C@@H]3CCNC3)n2)cc1SC | 0.018 | – | – | – | – | – | – | inhibition at 10 µM [17]: 25%
5 | CNc1cc(Nc2cnc(C#N)c(O[C@H](C)CN(C)C)n2)ncc1-c1cnn(C)c1 | – | 30 | 57 | 555 | 910 | 45 | 12 | Therm_solubility [18]: 100 µg/mL; IC50 [19]: 3.2 µM; MTD [20]: 160 mg/kg; PPB [21]: 70%; IC50 [22]: 10 µM; Drug uptake [23]: Active; inhibition [24]: inactive; F [25]: 48%; permeability [16]: 8.8 ×10⁻⁶ cm/s; CL [26]: 0.132 L/h; inhibition [27]: Active; solubility thermodynamic [28]: > 8000 µg/mL; Vdss [29]: 0.209 L

Further lines, with some results ahead:

Row | IC50 [2] [µM] | metabolised at 0.5 h [5] [%] | concentration at 6 h [12] [nM] | concentration at 1 h [13] [nM] | concentration at 1 h [14] [nM] | concentration at 6 h [15] [nM] | SMILES | IC50 [1] [µM] | other results
6 | 0.02 | – | – | – | – | – | CNc1cc(Nc2cnc(C#N)c(O[C@H](C)CN(C)C)n2)ncc1Cl | 1 | –
7 | 0.007 | 49 | – | – | – | – | CNc1cc(Nc2cnc(C#N)c(O[C@H](C)CN(C)C)n2)ncc1C(=O)OC | 5 | –
8 | 0.0034 | 19 | 4 | 18 | 147 | 8 | CNc1cc(Nc2cnc(C#N)c(O[C@H]3CCN(C)C3)n2)ncc1-c1cnn(C)c1 | – | –
9 | 0.021 | 43 | 26 | 809 | 1040 | 33 | CNc1cc(Nc2cnc(C#N)c(O[C@H](C)CN(C)C)n2)ncc1C(F)(F)F | 1 | permeability [16]: < 4.6 ×10⁻⁶ cm/s
10 | 0.026 | 42 | 8 | 80 | 417 | 29 | CNc1cc(Nc2cnc(C#N)c(O[C@H](C)CN(C)C)n2)ncc1C1CC1 | 6 | –
11 | 0.0088 | – | – | – | – | – | COC(=O)c1cnc(Nc2cnc(C#N)c(O[C@@H]3CCNC3)n2)cc1N(C)C | 30 | –
